≈ marks a conversion by molar mass, not a printed value.
What was measured:
[1] = test system: Staphylococcus aureus; experiment: MIC by broth microdilution against Staphylococcus aureus; assay type: cell-based; settings: read-out: minimum inhibitory concentration (MIC)
[2] = test system: strain ATCC 33591 of MRSA; experiment: MIC by broth microdilution against MRSA; settings: MRSA ATCC 33591, 36° C. 48 h, Resazurin
Experimental: Pure DMSO samples are shown as zero control. […] Initial Concentration: 850 μg/mL.
The ethanol extract was dissolved in DMSO at a concentration of 10 mg/mL, from which serial dilutions were prepared (ratio 1:2) in 96-well sterile plates, geometry 12×8 wells. To each well were added 10 μL of a bacterial suspension containing approximately 7×10^6 cells/mL, prepared from the recent growth of strain ATCC 33591 of MRSA in nutrient agar. […] The experiments were performed in quadruplicate, in different periods.

[3] = test system: clinical isolates of Staphylococcus aureus; settings: pure molecule; literature value; cited from earlier work

## CC(C)C(=O)c1c2c(c3oc(=O)cc(-c4ccc(O)cc4)c3c1O)CC(C)(C)C=C2 [amarilin]
[1]
  MIC: ≤ 1 µg/mL

## Cl.O=C(O)c1cn(C2CC2)c2cc(N3CCNCC3)c(F)cc2c1=O [hydrochloride ciprofloxacin]
[2]
  minimum inhibitory concentration (MIC): 1 µg/mL

## C/C(=C\C(=O)OCCCCCCCCC(=O)O)C[C@@H]1OC[C@H](C[C@@H]2O[C@H]2[C@@H](C)[C@H](C)O)[C@@H](O)[C@H]1O [mupirocin]
[3]
  MIC value: ~0.5 µg/mL (≈ 0.999 µM)

Source: patent US20150335691A1, “PLANT EXTRACT OBTAINED FROM KIELMEYERA AUREOVINOSA WHICH HAS ANTIBIOTIC ACTIVITY, ISOLATED CHEMICAL COMPOUND, COMPOSITIONS COMPRISING SAME, USES THEREOF AND METHODS FOR PREVENTING AND TREATING BACTERIAL INFECTIONS” (EXTRACTA MOLÉCULAS NATURAIS S/A, priority 2011, published 2015)
